# Where a name gives a salt, the structure may show the parent alone. Read-outs that look alike come from different tables or passages of the source. Where a SMILES comes first, the peptide text is derived from it. [ ]: non-standard residue; d: D form. pGlu = O=C1CC[C@@H](C(=O)O)N1; Thz = O=C(O)[C@@H]1CSCN1
# Tests used:
# primary rat microglia [1] = details: rat
# primary rat microglia [2] = assay: Cell toxicity (dead cells, size <150 μm2) in coated fibrin (cFib) assay; details: primary microglia HTS;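 further: share of dead cells sized under 150 µm2 at 10 µM in fibrin-stimulated microglia HTS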
# [3] = tested on: LPS-induced microglia activation; assay: Image-based assay of LPS-induced microglia activation (HTS and dose response); format: cell-based, rat; details: Rattus norvegicus, Microglia, read-out: LPS % inhibition
# [4] = tested on: fibrin-induced microglia activation; assay: Image-based assay of fibrin-induced microglia activation (HTS and dose response); format: cell-based, rat; details: Rattus norvegicus, Microglia, primary microglia HTS, fibrin stimulation, read-out: Fibrin % inhibition
# [5] = tested on: fibrin- and LPS-induced microglia activation; assay: cells; format: cell-based, rat
# [6] = fibrin stimulation, cell size <150 μm2 as marker of toxicity
# [7] = cell size >800 μm2 as marker of activation
# [8] = classification by fibrin and LPS inhibition in HTS
# [9] = 48 h, primary microglia HTS, LPS stimulation, cell size >800 μm2 as marker of activation
Structure (SMILES),LPS % cell toxicity (primary rat microglia [1]),Fibrin % cell toxicity (primary rat microglia [2]; [6]),inhibition at 10 µM ([3]; 48 h),"inhibition at 10 µM [4, 7]","Quadrant (FIG. 5b) [5, 8]","Fibrin % cell toxicity (primary rat microglia [2]; fibrin assay, dead cells (size <150 μm2))","inhibition at 10 µM ([3]; primary microglia HTS, LPS stimulation, compounds at 10 μM)",inhibition at 10 µM ([4]; compounds at 10 μM),"Quadrant (FIG. 5b) ([5]; quadrant by fibrin and LPS inhibition, HTS at 10 μM)","inhibition at 10 µM [3, 9]"
CCCN1C[C@H](CSC)C[C@@H]2c3cccc4[nH]cc(c34)C[C@H]21 [Pergolide],0%,0%,16%,-18%,Q4,–,–,–,–,–
CCC[C@H](N[C@@H](C)C(=O)N1[C@H](C(=O)O)C[C@@H]2CCCC[C@@H]21)C(=O)OCC [Perindopril],0%,0%,18%,-27%,Q4,–,–,–,–,–
CC1(C)C(C=C(Cl)Cl)C1C(=O)OCc1cccc(Oc2ccccc2)c1 (stereo not drawn) [Permethrin],0%,0%,11%,-21%,Q4,–,–,–,–,–
OCCN1CCN(CCCN2c3ccccc3Sc3ccc(Cl)cc32)CC1 [Perphenazine],1%,1%,23%,23%,Q4,–,–,–,–,–
CCOc1ccc(NC(C)=O)cc1 [Phenacetin],0%,1%,16%,-5%,Q4,–,–,–,–,–
Nc1ccc(/N=N/c2ccccc2)c(N)n1 [Phenazopyridine],0%,0%,6%,9%,Q4,–,–,–,–,–
CC(Oc1ccccc1)C(=O)N[C@@H]1C(=O)N2[C@@H]1SC(C)(C)[C@@H]2C(=O)O (stereo partly drawn) [Phenethicillin Potassium],0%,0%,3%,-2%,Q4,–,–,–,–,–
O=C1c2ccccc2C(=O)C1c1ccccc1 [Phenindione],0%,1%,0%,-10%,Q4,–,–,–,–,–
CCC1(c2ccccc2)C(=O)NC(=O)NC1=O [Phenobarbital],0%,0%,-7%,-22%,Q4,–,–,–,–,–
O=C1OC(c2ccc(O)cc2)(c2ccc(O)cc2)c2ccccc21 [Phenolphthalein],0%,1%,13%,10%,Q4,–,–,–,–,–
c1ccc2c(c1)Nc1ccccc1S2 [Phenothiazine],1%,0%,24%,-84%,Q4,–,–,–,–,–
CC1(C)S[C@@H]2[C@H](NC(=O)COc3ccccc3)C(=O)N2[C@H]1C(=O)O [Phenoxymethylpenicillin],0%,1%,14%,0%,Q4,–,–,–,–,–
CN1C(=O)CC(c2ccccc2)C1=O (stereo not drawn) [Phensuximide],0%,1%,4%,-7%,Q4,–,–,–,–,–
Cc1ccc(N(CC2=NCCN2)c2cccc(O)c2)cc1 [Phentolamine],0%,0%,17%,-21%,Q4,–,–,–,–,–
N[C@@H](COP(=O)(O)O)C(=O)O [Phosphonoserine],0%,1%,10%,-6%,Q4,–,–,–,–,–
CC(=O)NS(=O)(=O)c1ccc(NC(=O)c2ccccc2C(=O)O)cc1 [Phthalylsulfacetamide],0%,1%,-1%,1%,Q4,–,–,–,–,–
O=C(O)c1ccccc1C(=O)Nc1ccc(S(=O)(=O)Nc2nccs2)cc1 [Phthalylsulfathiazole],1%,1%,13%,3%,Q4,–,–,–,–,–
NCc1cccnc1 [Picolamine],0%,1%,4%,-1%,Q4,–,–,–,–,–
OCc1ccccn1 [Piconol],1%,1%,26%,-1%,Q4,–,–,–,–,–
O=C1CC[C@@H](C(=O)O)N1 [Pidolic Acid],0%,1%,15%,-57%,Q4,–,–,–,–,–
O=C1CC[C@@H](C(=O)N2CSC[C@H]2C(=O)O)N1 [Pidotimod] ([pGlu]-[Thz]-OH),0%,1%,14%,-10%,Q4,–,–,–,–,–
CC[C@@H]1C(=O)OC[C@@H]1Cc1cncn1C [Pilocarpine],0%,1%,14%,-2%,Q4,–,–,–,–,–
CN1CCC(=C2c3ccccc3Sc3ccccc32)CC1 [Pimethixene Maleate],2%,–,–,–,–,6%,92%,112%,Q2,–
CC(C)NCC(O)COc1cccc2[nH]ccc12 (stereo not drawn) [Pindolol],1%,1%,24%,-13%,Q4,–,–,–,–,–
CCc1ccc(CCOc2ccc(CC3SC(=O)NC3=O)cc2)nc1 (stereo not drawn) [Pioglitazone],1%,1%,33%,2%,Q4,–,–,–,–,–
NC(=O)C1(N2CCCCC2)CCN(CCCC(=O)c2ccc(F)cc2)CC1 [Pipamperone],0%,1%,–,-4%,Q4,–,–,–,–,8%
CCN1CCCC(OC(=O)C(c2ccccc2)c2ccccc2)C1 (stereo not drawn) [Piperidolate Hydrochloride],0%,0%,–,-21%,Q4,–,–,–,–,8%
O=C(/C=C/C=C/c1ccc2c(c1)OCO2)N1CCCCC1 [Piperine],0%,1%,10%,-13%,Q4,–,–,–,–,–
NC(=O)CN1CCCC1=O [Piracetam],0%,0%,9%,-21%,Q4,–,–,–,–,–
Cc1nc2ccccn2c(=O)c1CCN1CCC(C(=O)c2ccc(F)cc2)CC1 [Pirenperone],0%,1%,20%,2%,Q4,–,–,–,–,–
